{
  "source": "patent US11452717B2",
  "about": "“Small molecule activators of nicotinamide phosphoribosyltransferase (NAMPT) and uses thereof” (Sanford Burnham Prebys Medical Discovery Institute, priority 2017, dated 2022)",
  "data": [
    {"molecular_target": "NAMPT enzyme (Homo sapiens (Human), UniProt P43490)", "sequence (P43490 whole entry, species assumed)": "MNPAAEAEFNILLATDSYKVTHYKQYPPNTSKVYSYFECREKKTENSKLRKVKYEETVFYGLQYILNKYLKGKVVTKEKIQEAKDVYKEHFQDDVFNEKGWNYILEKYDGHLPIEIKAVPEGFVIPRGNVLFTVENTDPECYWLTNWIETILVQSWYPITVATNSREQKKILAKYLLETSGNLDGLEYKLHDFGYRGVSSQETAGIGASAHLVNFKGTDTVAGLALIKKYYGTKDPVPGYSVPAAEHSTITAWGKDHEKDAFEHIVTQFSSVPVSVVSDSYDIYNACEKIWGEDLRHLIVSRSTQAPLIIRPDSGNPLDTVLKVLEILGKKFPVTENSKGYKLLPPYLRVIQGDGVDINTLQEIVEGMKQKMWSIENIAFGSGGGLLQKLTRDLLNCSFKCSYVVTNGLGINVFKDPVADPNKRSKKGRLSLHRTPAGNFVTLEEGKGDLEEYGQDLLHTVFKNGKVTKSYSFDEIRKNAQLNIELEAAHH", "test": "Enzyme Assay and NMN Detection (NAMPT reaction, fluorescence detection of NMN)", "type": "biochemical", "conditions": "Table B-2; NAMPT activation, NMN formation", "in_short": "(§1)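 NMN formed was read at ex380/em460 after acetophenone/KOH derivatization and formic acid addition, using a same-day calibration curve. Final conditions: NAMPT 16 nM, nicotinamide 5 uM, PRPP 6.25 uM, ATP 120 uM, pyrophosphatase 0.04 U/ml, pH 7.5 HEPES buffer with MgCl2 and TCEP, 2 h at room temperature.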", "units": {"EC50": "nM"}, "values": [
      {"smiles": "O=C(NCc1ccncc1)Nc1ccc(S(=O)(=O)N2CC3CCC(C2)O3)cc1", "note": "[1-[4-(8-Oxa-3-aza-bicyclo[3.2.1]octane-3-sulfonyl)-phenyl]-3-pyridin-4-ylmethyl-urea]", "EC50": "100 to 2000"},
      {"smiles": "O=C(NCc1ccncc1)Nc1ccc(S(=O)(=O)N2CCOCC2)cc1", "note": "[1-[4-(Morpholine-4-sulfonyl)-phenyl]-3-pyridin-4-ylmethyl-urea]", "EC50": "100 to 2000"},
      {"smiles": "O=C(NCc1ccncc1)Nc1ccc(S(=O)(=O)N2CCNCC2)cc1", "note": "[1-[4-(Piperazine-1-sulfonyl)-phenyl}-3-pyridin-4-ylmethyl-urea]", "EC50": "5000 to 20000"},
      {"smiles": "O=C(NCc1ccncc1)Nc1ccc(S(=O)(=O)N2CCCCC2)cc1", "note": "[1-[4-(Piperidine-1-sulfonyl)-phenyl]-3-pyridin-4-ylmethyl-urea]", "EC50": "100 to 2000"},
      {"smiles": "O=C(NCc1ccncc1)Nc1ccc(NS(=O)(=O)c2ccccc2Cl)cc1", "note": "[2-Chloro-N-[4-(3-pyridin-4-ylmethyl-ureido)-phenyl]-benzenesulfonamide]", "EC50": "< 100"},
      {"smiles": "COc1ccccc1S(=O)(=O)Nc1ccc(NC(=O)NCc2ccncc2)cc1", "note": "[2-Methoxy-N-[4-(3-pyridin-4-ylmethyl-ureido)-phenyl]-benzenesulfonamide]", "EC50": "100 to 2000"},
      {"smiles": "COC(=O)c1ccccc1CNS(=O)(=O)c1ccc(NC(=O)NCc2ccncc2)cc1", "note": "[2-{[4-(3-Pyridin-4-ylmethyl-ureido)-benzenesulfonylamino]-methyl}-benzoic acid methyl ester]", "EC50": "< 100"},
      {"smiles": "O=C(NCc1ccncc1)Nc1cccc(C(=O)O)c1", "note": "[3-(3-(Pyridin-4-ylmethyl)ureido)benzoic acid]", "EC50": "> 20000"},
      {"smiles": "O=C(NCc1ccncc1)Nc1ccc(NS(=O)(=O)c2cccc(Cl)c2)cc1", "note": "[3-Chloro-N-[4-(3-pyridin-4-ylmethyl-ureido)-phenyl]-benzenesulfonamide]", "EC50": "< 100"}
    ]},
    {"molecular_target": "NAMPT enzyme (Homo sapiens (Human), UniProt P43490)", "test": "Enzyme Assay and NMN Detection (NAMPT reaction, fluorescence detection of NMN)", "type": "biochemical", "conditions": "Table B-3; NAMPT activation, NMN formation", "in_short": "as §1", "units": {"EC50": "nM"}, "values": [
      {"smiles": "CCOC(=O)c1ccc2c(cnn2C(=O)NCc2ccncc2)c1", "note": "[1-[(Pyridin-4-ylmethyl)-carbamoyl]-1H-indazole-5-carboxylic acid ethyl ester]", "EC50": "> 20000"}
    ]},
    {"molecular_target": "NAMPT enzyme (Homo sapiens (Human), UniProt P43490)", "test": "Enzyme Assay and NMN Detection (NAMPT reaction, fluorescence detection of NMN)", "type": "biochemical", "conditions": "Table B-4; NAMPT activation, NMN formation", "in_short": "as §1", "units": {"EC50": "nM"}, "values": [
      {"smiles": "O=C(NCc1cn[nH]c1)Nc1ccc(S(=O)(=O)c2cnccn2)cc1", "note": "[1-[4-(Pyrazine-2-sulfonyl)-phenyl]-3-(1H-pyrazol-4-ylmethyl)-urea]", "EC50": "100 to 2000"},
      {"smiles": "O=C(NCc1cn[nH]c1)Nc1ccc(Nc2nc(-c3ccccc3Cl)cs2)cc1", "note": "[1-{4-[4-(2-Chloro-phenyl)-thiazol-2-ylamino]-phenyl}-3-(1H-pyrazol-4-ylmethyl)-urea]", "EC50": "5000 to 20000"},
      {"smiles": "O=C(NCc1cn[nH]c1)Nc1ccc(Nc2nc(-c3ccccc3F)cs2)cc1", "note": "[1-{4-[4-(2-Fluoro-phenyl)-thiazol-2-ylamino]-phenyl}-3-(1H-pyrazol-4-ylmethyl)-urea]", "EC50": "100 to 2000"},
      {"smiles": "O=C(NCc1cn[nH]c1)Nc1ccc(Nc2nc(-c3cccc(Cl)c3)cs2)cc1", "note": "[1-{4-[4-(3-Chloro-phenyl)-thiazol-2-ylamino]-phenyl}-3-(1H-pyrazol-4-ylmethyl)-urea]", "EC50": "2000 to 5000"},
      {"smiles": "O=C(NCc1cn[nH]c1)Nc1ccc(Nc2nc(-c3cccc(F)c3)cs2)cc1", "note": "[1-{4-[4-(3-Fluoro-phenyl)-thiazol-2-ylamino]-phenyl}-3-(1H-pyrazol-4-ylmethyl)-urea]", "EC50": "100 to 2000"},
      {"smiles": "O=C(NCc1cn[nH]c1)Nc1ccc(Nc2nc(-c3ccc(Cl)cc3)cs2)cc1", "note": "[1-{4-[4-(4-Chloro-phenyl)-thiazol-2-ylamino]-phenyl}-3-(1H-pyrazol-4-ylmethyl)-urea]", "EC50": "100 to 2000"},
      {"smiles": "O=C(NCc1cn[nH]c1)Nc1ccc(Nc2nc(-c3ccc(F)cc3)cs2)cc1", "note": "[1-{4-[4-(4-Fluoro-phenyl)-thiazol-2-ylamino]-phenyl}-3-(1H-pyrazol-4-ylmethyl)-urea]", "EC50": "100 to 2000"}
    ]},
    {"molecular_target": "NAMPT enzyme (Homo sapiens (Human), UniProt P43490)", "test": "Enzyme Assay and NMN Detection (NAMPT reaction, fluorescence detection of NMN)", "type": "biochemical", "conditions": "Table B-6; NAMPT activation, NMN formation", "in_short": "as §1", "units": {"EC50": "nM"}, "values": [
      {"smiles": "O=C(NCc1ccncc1)Nc1ccc(Nc2nc3ccccc3s2)cc1", "note": "[1-[4-(Benzothiazol-2-ylamino)-phenyl]-3-pyridin-4-ylmethyl-urea]", "EC50": "5000 to 20000"},
      {"smiles": "O=C(NCc1ccncc1)Nc1ccc(S(=O)(=O)c2cnccn2)cc1", "note": "[1-[4-(Pyrazine-2-sulfonyl)-phenyl]-3-pyridin-4-ylmethyl-urea]", "EC50": "100 to 2000"},
      {"smiles": "O=C(NCc1ccncc1)Nc1ccc(S(=O)(=O)c2cccnc2)cc1", "note": "[1-[4-(Pyridine-3-sulfonyl)-phenyl]-3-pyridin-4-ylmethyl-urea]", "EC50": "100 to 2000"}
    ]}
  ]
}
